Laboratory results taken from the supplement of paper PMC10307832.

Experiments:
Assay in all cases: relative viability (nuclei count vs DMSO), 5 days (fraction); higher = more cells survive
HARA = test system: HARA
In short: (§1)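 Relative viability was taken as the ratio of nuclei in treated wells to nuclei in vehicle wells. Lung cancer cell lines in 1536-well plates received compounds by pin tool one day after seeding, either one drug alone or a fixed anchor-drug dose plus five library-drug doses (not always all listed) in √10 steps. Nuclei were counted on 4× images after 5 days of treatment, and values are medians of duplicate plates.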

HCC-78 = test system: HCC-78
In short: as §1

NCI-H520 = test system: NCI-H520
In short: as §1

UMC-11 = test system: UMC-11
In short: as §1

PC-3 [JPC-3] = test system: PC-3 [JPC-3]
In short: as §1

NCI-H838 = test system: NCI-H838
In short: as §1

NCI-H1793 = test system: NCI-H1793
In short: as §1

COR-L23 = test system: COR-L23
In short: as §1

NCI-H2405 = test system: NCI-H2405
In short: as §1

NCI-H1651 = test system: NCI-H1651
In short: as §1

LXF-289 = test system: LXF-289
In short: as §1

LCLC-97TM1 = test system: LCLC-97TM1
In short: as §1

NCI-H1650 = test system: NCI-H1650
In short: as §1

NCI-H2347 = test system: NCI-H2347
In short: as §1

LK-2 = test system: LK-2
In short: as §1

RERF-LC-KJ = test system: RERF-LC-KJ
In short: as §1

LOU-NH91 = test system: LOU-NH91
In short: as §1

NCI-H647 = test system: NCI-H647
In short: as §1

NCI-H23 = test system: NCI-H23
In short: as §1

A-427 = test system: A-427
In short: as §1

201T = test system: 201T
In short: as §1

SMILES: Nc1cccc2c1CN(C1CCC(=O)NC1=O)C2=O (stereo unspecified) [Lenalidomide] + CS(=O)(=O)CCNCc1ccc(-c2ccc3ncnc(Nc4ccc(OCc5cccc(F)c5)c(Cl)c4)c3c2)o1 [Lapatinib] (partner 2 µM)
- relative viability (HARA; first compound 0.253 µM): 0.775
- relative viability (HARA; first compound 0.8 µM): 0.653
- relative viability (HARA; first compound 2.53 µM): 0.8
- relative viability (HARA; first compound 8 µM): 0.571
- relative viability (HCC-78; first compound 0.253 µM): 0.811
- relative viability (HCC-78; first compound 0.8 µM): 0.367
- relative viability (HCC-78; first compound 2.53 µM): 0.245
- relative viability (HCC-78; first compound 8 µM): 0.271
- relative viability (NCI-H520; first compound 0.253 µM): 0.82
- relative viability (NCI-H520; first compound 0.8 µM): 0.929
- relative viability (NCI-H520; first compound 2.53 µM): 1.11
- relative viability (NCI-H520; first compound 8 µM): 0.637
- relative viability (UMC-11; first compound 0.253 µM): 1.1
- relative viability (UMC-11; first compound 0.8 µM): 0.803
- relative viability (UMC-11; first compound 2.53 µM): 1.04
- relative viability (UMC-11; first compound 8 µM): 0.791
- relative viability (PC-3 [JPC-3]; first compound 0.253 µM): 0.515
- relative viability (PC-3 [JPC-3]; first compound 0.8 µM): 0.377
- relative viability (PC-3 [JPC-3]; first compound 2.53 µM): 0.496
- relative viability (PC-3 [JPC-3]; first compound 8 µM): 0.389
- relative viability (NCI-H838; first compound 0.253 µM): 0.807
- relative viability (NCI-H838; first compound 0.8 µM): 0.956
- relative viability (NCI-H838; first compound 2.53 µM): 1.34
- relative viability (NCI-H838; first compound 8 µM): 0.816
- relative viability (NCI-H1793; first compound 0.253 µM): 0.675
- relative viability (NCI-H1793; first compound 0.8 µM): 0.483
- relative viability (NCI-H1793; first compound 2.53 µM): 1.07
- relative viability (NCI-H1793; first compound 8 µM): 0.454
- relative viability (COR-L23; first compound 0.253 µM): 1.05
- relative viability (COR-L23; first compound 0.8 µM): 0.935
- relative viability (COR-L23; first compound 2.53 µM): 1.29
- relative viability (COR-L23; first compound 8 µM): 1.2
- relative viability (NCI-H2405; first compound 0.253 µM): 1
- relative viability (NCI-H2405; first compound 0.8 µM): 0.949
- relative viability (NCI-H2405; first compound 2.53 µM): 1.03
- relative viability (NCI-H2405; first compound 8 µM): 0.884
- relative viability (NCI-H1651; first compound 0.253 µM): 0.825
- relative viability (NCI-H1651; first compound 0.8 µM): 0.867
- relative viability (NCI-H1651; first compound 2.53 µM): 1.25
- relative viability (NCI-H1651; first compound 8 µM): 0.88
- relative viability (LXF-289; first compound 0.253 µM): 0.928
- relative viability (LXF-289; first compound 0.8 µM): 0.882
- relative viability (LXF-289; first compound 2.53 µM): 0.991
- relative viability (LXF-289; first compound 8 µM): 0.957
- relative viability (LCLC-97TM1; first compound 0.8 µM): 0.602
- relative viability (LCLC-97TM1; first compound 2.53 µM): 1.09
- relative viability (LCLC-97TM1; first compound 8 µM): 0.623
- relative viability (NCI-H1650; first compound 0.253 µM): 0.75
- relative viability (NCI-H1650; first compound 0.8 µM): 0.485
- relative viability (NCI-H1650; first compound 2.53 µM): 0.835
- relative viability (NCI-H1650; first compound 8 µM): 0.731
- relative viability (NCI-H2347; first compound 0.253 µM): 0.928
- relative viability (NCI-H2347; first compound 0.8 µM): 0.797
- relative viability (NCI-H2347; first compound 2.53 µM): 0.894
- relative viability (NCI-H2347; first compound 8 µM): 0.802
- relative viability (LK-2; first compound 0.253 µM): 0.884
- relative viability (LK-2; first compound 2.53 µM): 0.864
- relative viability (LK-2; first compound 8 µM): 0.709
- relative viability (RERF-LC-KJ; first compound 0.253 µM): 0.86
- relative viability (RERF-LC-KJ; first compound 0.8 µM): 0.778
- relative viability (RERF-LC-KJ; first compound 2.53 µM): 0.904
- relative viability (RERF-LC-KJ; first compound 8 µM): 0.757
- relative viability (LOU-NH91; first compound 0.253 µM): 0.771
- relative viability (LOU-NH91; first compound 0.8 µM): 0.675
- relative viability (LOU-NH91; first compound 2.53 µM): 0.758
- relative viability (LOU-NH91; first compound 8 µM): 0.579
- relative viability (NCI-H647; first compound 0.253 µM): 0.995
- relative viability (NCI-H647; first compound 0.8 µM): 0.981
- relative viability (NCI-H647; first compound 2.53 µM): 1.46
- relative viability (NCI-H647; first compound 8 µM): 0.88
- relative viability (NCI-H23; first compound 0.253 µM): 1.05
- relative viability (NCI-H23; first compound 0.8 µM): 1
- relative viability (NCI-H23; first compound 2.53 µM): 1.16
- relative viability (NCI-H23; first compound 8 µM): 0.781
- relative viability (A-427; first compound 0.253 µM): 0.983
- relative viability (A-427; first compound 2.53 µM): 1.1
- relative viability (A-427; first compound 8 µM): 0.975
- relative viability (201T; first compound 0.253 µM): 1.07
- relative viability (201T; first compound 0.8 µM): 0.815
- relative viability (201T; first compound 2.53 µM): 1.02
- relative viability (201T; first compound 8 µM): 0.954
